Marks after values point to notes of the source that are not given here.
Columns and labels:
IL-6 = assay: RT-PCR mRNA expression in visceral fat tissue: IL-6; assay type: in vivo, mouse; conditions: versus HFD group, FIGS. 6a and 6b
Description: (§1) After adding 1 mL of TRIzol solution per 0.1 g of epididymal fat tissue, centrifugation was performed at 4° C. and 12,000×g for 10 minutes. The supernatant was transferred to a fresh tube and vortexed after adding 200 μL of chloroform. After repeating this procedure twice, the supernatant was transferred to a fresh tube and isopropanol was added to the supernatant at a ratio of 1:1. After shaking strongly for 10 times and keeping at room temperature for 10 minutes, centrifugation was performed at 4° C. and 12,000×g for 10 minutes. After removing the supernatant and adding 1 mL of 70% ethanol to the remaining pellets, centrifugation was performed at 4° C. and 7,500×g for 5 minutes. After removing ethanol, the RNA pellets held in the tube were dried at room temperature for 5 minutes and dissolved using nuclease-free water. The concentration of the extracted RNA was measured at 260 nm and 280 nm using a UV/VIS spectrophotometer (Beckman Coulter, DU730), and the integrity of RNA was analyzed by agarose gel electrophoresis.
(§2) cDNA was synthesized by performing reverse transcription for the RNA sample extracted from the epididymal fat tissue using oligo-dT primer and SuperScript reverse transcriptase (GIBCO BRL, Gaithersburg, Md., USA). […]

3T3-L1 cells = assay: Suppression of differentiation of 3T3-L1 preadipocytes into adipocytes (Oil Red O staining); assay type: cell-based, mouse; conditions: camphene 0.1, 1, 10, 50 and 100 μM, 14 days
Description: Mouse 3T3-L1 cells were used to investigate the effect of camphene on differentiation and growth of adipocytes. The preadipocytes, 3T3-L1 cells, were seeded on a 12-well plate and cultured to confluency using Dulbecco's modified Eagle's medium (DMEM) containing 1% penicillin-streptomycin, 1% nonessential amino acid and 10% fatal bovine serum (FBS), in a 5% CO2 incubator at 37° C. The 3T3-L1 cells grown to confluency were cultured for 2 days in a medium containing MDI (0.5 mM isobutylmethylxanthine, 1 μM dexamethasone and 1 μg/mL insulin) to differentiate them into adipocytes. Then, the cells were further cultivated in DMEM containing 1 μg/mL insulin to differentiate them into mature adipocytes. The cells were further cultured for 10 more days while replacing DMEM every other day to obtain fully differentiated adipocytes. From the first day when MDI was added to the 3T3-L1 cells, camphene was treated at concentrations of 0.1, 1, 10, 50 and 100 μM with 2-day intervals. (±)-Camphene purchased from Sigma-Aldrich was used after being dissolved in DMSO. Only DMSO was added to the negative control group. […] In order to measure the level of triglyceride contained in the differentiated 3T3-L1 cells, the stained lipid droplets were dissolved in 1 mL of isobutanol and OD value was measured at 600 nm.

[1] = tested on: Gram-positive bacteria, Gram-negative bacteria and fungi; conditions: cited from earlier work
NF-κB = conditions: mouse macrophage cells (RAW 264.7); cited from earlier work
UCP1 = assay: RT-PCR mRNA expression in visceral fat tissue: UCP1; assay type: in vivo, mouse; conditions: versus HFD group, FIG. 7
Description: as §1, §2

PPARγ2 = assay: RT-PCR mRNA expression in epididymal (visceral) fat tissue: PPARγ2; assay type: in vivo, mouse; conditions: as compared to the high-fat diet group, FIGS. 5a and 5b
Description: as §1, §2

UCP3 = assay: RT-PCR mRNA expression in visceral fat tissue: UCP3; assay type: in vivo, mouse; conditions: versus HFD group, FIG. 7
Description: as §1, §2

C/EBPα = assay: RT-PCR mRNA expression in epididymal (visceral) fat tissue: C/EBPα; assay type: in vivo, mouse; conditions: as compared to the high-fat diet group, FIGS. 5a and 5b
Description: as §1, §2

TNFα = assay: RT-PCR mRNA expression in visceral fat tissue: TNFα; assay type: in vivo, mouse; conditions: versus HFD group, FIGS. 6a and 6b
Description: as §1, §2

C57BL/6J mice [2] = assay: Obesity-related biochemical indices in liver tissue of high-fat diet mice; assay type: in vivo, mouse; conditions: 10 weeks
Description: (§3) The obesity-inducing diet used in this example was high-fat diet (HFD: 40% fat calorie, 17 g lard+3% corn oil/100 g diet). Camphene-containing diet had the same composition as HFD, except that camphene was included at 0.2%. Normal diet (ND) was prepared with the composition of AIN-76 rodent diet (American Institute of Nutrition, Report of the American Institute of Nutrition ad hoc committee on standards for nutritional studies. J. Nutr. 107: 1340-1348, 1977) (see Table 1). (±)-Camphene was purchased from Sigma-Aldrich. 5-week-old male C57BL/6J mice (Orient, Korea) were accustomed to the laboratory environment for 1 week while feeding solid feed. Then, they were randomly divided into high-fat diet control group and test group and bred for a total of 10 weeks. The diet was given between 10 and 11 a.m. every day together with water. Diet intake was measured every day and body weight was measured once in 3 days. In order to avoid transient body weight increase after feed intake, body weight was measured 2 hours after removing the feed. Feeding efficiency was calculated by dividing accumulated body weight gain during the test period, i.e. from the test diet was given first until the day when the mouse was sacrificed, by total diet intake. After fasting the test animal for at least 12 hours and anesthetizing with diethyl ether, blood, liver and visceral fat (epididymal fat, perirenal fat, mesenteric fat and retroperitoneal fat) were taken and weighed after washing with 0.1 M PBS (pH 7.4). Blood taken from the abdominal aorta was centrifuged at 1000×g for 15 minutes to separate the serum. Total cholesterol, triglyceride and glucose levels in the serum were measured twice for each using a commercially available kit (Bio Clinical system), and insulin level was measured by ELISA using a mouse insulin kit (Shibayaki, Japan). Lipids were extracted from the liver tissue according to Folch et al.'s method. After adding 1 mL of distilled water to 0.25 g of liver tissue, the liver tissue was homogenized using a Polytron homogenizer (IKA-Werke GmbH & Co., Ultra-Turrax, Staufen, Germany). After adding 5 mL of chloroform:methanol solution (2:1, v/v) to the homogenate and mixing well, the mixture was centrifuged at 1000×g for 10 minutes. After adding 2 mL of chloroform:methanol solution (2:1, v/v) again to the supernatant, the same procedure was repeated to completely separate the lipid components of the liver. After adding 3 mL of chloroform:methanol:0.05% CaCl2 (3:48:47, v/v/v) solution to the remaining pellets and mixing well for 1 minute, followed by centrifugation at 1000×g for 10 minutes, the resulting pellets were completely dried with nitrogen gas. The dried lipids were dissolved in 1 mL of methanol and then analyzed. The same kit (Bio Clinical system) as the one used for the serum analysis was used to measure the triglyceride level of the liver tissue.

C57BL/6J mice [3] = assay: Obesity-related biochemical indices in blood (serum) of high-fat diet mice; assay type: in vivo, mouse; conditions: 10 weeks
Description: as §3

C57BL/6J mice [4] = assay: Body weight and visceral fat weight of mice fed high-fat diet containing camphene; assay type: in vivo, mouse; conditions: 0.2% camphene in high-fat diet, 10 weeks
Description: The obesity-inducing diet used in this example was high-fat diet (HFD: 40% fat calorie, 17 g lard+3% corn oil/100 g diet). Camphene-containing diet had the same composition as HFD, except that camphene was included at 0.2%. Normal diet (ND) was prepared with the composition of AIN-76 rodent diet (American Institute of Nutrition, Report of the American Institute of Nutrition ad hoc committee on standards for nutritional studies. J. Nutr. 107: 1340-1348, 1977) (see Table 1). (±)-Camphene was purchased from Sigma-Aldrich. [table] 5-week-old male C57BL/6J mice (Orient, Korea) were accustomed to the laboratory environment for 1 week while feeding solid feed. Then, they were randomly divided into high-fat diet control group and test group and bred for a total of 10 weeks. The diet was given between 10 and 11 a.m. every day together with water. Diet intake was measured every day and body weight was measured once in 3 days. In order to avoid transient body weight increase after feed intake, body weight was measured 2 hours after removing the feed. Feeding efficiency was calculated by dividing accumulated body weight gain during the test period, i.e. from the test diet was given first until the day when the mouse was sacrificed, by total diet intake. After fasting the test animal for at least 12 hours and anesthetizing with diethyl ether, blood, liver and visceral fat (epididymal fat, perirenal fat, mesenteric fat and retroperitoneal fat) were taken and weighed after washing with 0.1 M PBS (pH 7.4). Blood taken from the abdominal aorta was centrifuged at 1000×g for 15 minutes to separate the serum.

aP2 = assay: RT-PCR mRNA expression in epididymal (visceral) fat tissue: aP2; assay type: in vivo, mouse; conditions: as compared to the high-fat diet group, FIGS. 5a and 5b
Description: as §1, §2

[5] = liver tissue, camphene-administered group
[6] = blood, camphene-administered group

With `C=C1C2CCC(C2)C1(C)C` (racemic) [camphene] the “IL-6 gene expression in visceral fat tissue” value (IL-6) was “decreased expression of TNFα and IL-6 genes back to the level of the ND group”, the “differentiation of the preadipocytes (Oil Red O staining)” value (3T3-L1 cells; FIG. 1a) was “reduced the differentiation of the preadipocytes in a concentration-dependent manner” and the “OD value (600 nm) of fats stained with Oil Red O” value (3T3-L1 cells; FIG. 1b) was “decreased in a concentration-dependent manner”. For the same compound, the “growth of Gram-positive bacteria, Gram-negative bacteria and fungi” value [1] was “inhibiting growth”, the “activity of the inflammation-inducing factor NF-κB” value (NF-κB) was “suppressing the activity” and the “UCP1 gene expression in visceral fat tissue” value (UCP1) was “increased expression”. For the same compound, the “PPARγ2 mRNA expression in visceral fat tissue” value (PPARγ2) was “significantly decreased expression”, the “UCP3 gene expression in visceral fat tissue” value (UCP3) was “increased expression” and the “C/EBPα mRNA expression in visceral fat tissue” value (C/EBPα) was “significantly decreased expression”. For the same compound, the “TNFα gene expression in visceral fat tissue” value (TNFα) was “decreased expression of TNFα and IL-6 genes back to the level of the ND group”, the “lower cholesterol level in the liver tissue as compared to HFD” value (C57BL/6J mice [2]; 0.2% camphene in high-fat diet) was 86% and the “lower free fatty acid level in the liver tissue as compared to HFD” value (C57BL/6J mice [2]; 0.2% camphene in high-fat diet) was 73%. For the same compound, the “lower liver weight per body weight as compared to HFD” value (C57BL/6J mice [2]; 0.2% camphene in high-fat diet) was 22%, the “lower triglyceride level in the liver tissue as compared to HFD” value (C57BL/6J mice [2]; 0.2% camphene in high-fat diet) was 58% and the Liver weight (C57BL/6J mice [2]; camphene-administered group) was 4.3 ± 0.32^b g/100 g body wt. For the same compound, the Cholesterol (C57BL/6J mice [2]; [5]) was 10.3 ± 2.6^c μmol/g, the Free fatty acid (C57BL/6J mice [2]; [5]) was 6.5 ± 0.91^b μEq/g and the Triglyceride (C57BL/6J mice [2]; [5]) was 14.7 ± 2.3^c μmol/g. The “lower arteriosclerotic index as compared to HFD” value (C57BL/6J mice [3]; 0.2% camphene in high-fat diet) was 59%, the “lower fasting blood sugar level as compared to HFD” value (C57BL/6J mice [3]; 0.2% camphene in high-fat diet) was 10% and the “lower insulin resistance (IRI) as compared to HFD” value (C57BL/6J mice [3]; 0.2% camphene in high-fat diet) was 40%. For the same compound, the “lower serum LDL+VLDL cholesterol level as compared to HFD” value (C57BL/6J mice [3]; 0.2% camphene in high-fat diet) was 79%, the “lower serum free fatty acid level as compared to HFD” value (C57BL/6J mice [3]; 0.2% camphene in high-fat diet) was 86% and the “lower serum insulin level as compared to HFD” value (C57BL/6J mice [3]; 0.2% camphene in high-fat diet) was 32%. For the same compound, the “lower serum total cholesterol level as compared to HFD” value (C57BL/6J mice [3]; 0.2% camphene in high-fat diet) was 60%, the “lower serum triglyceride level as compared to HFD” value (C57BL/6J mice [3]; 0.2% camphene in high-fat diet) was 69% and the “IRI (insulin resistance index)” value (C57BL/6J mice [3]; 10^−3 pmol insulin × mmol glucose × L^−2, camphene-administered group) was 1.11 ± 0.21^b. For the same compound, the Arteriosclerotic index (C57BL/6J mice [3]; (total cholesterol − HDL cholesterol)/HDL cholesterol, camphene-administered group) was 0.42 ± 0.03^b, the Free fatty acid (C57BL/6J mice [3]; [6]) was 197 ± 6.7^c μEq/L and the HDL cholesterol (C57BL/6J mice [3]; [6]) was 1.02 ± 0.04^c mmol/L. The Insulin (C57BL/6J mice [3]; [6]) was 0.85 ± 0.23^b ng/mL, the “LDL + VLDL cholesterol” value (C57BL/6J mice [3]; [6]) was 0.44 ± 0.05^b mmol/L and the Total cholesterol (C57BL/6J mice [3]; [6]) was 1.55 ± 0.11^b mmol/L. For the same compound, the Triglyceride (C57BL/6J mice [3]; [6]) was 0.44 ± 0.05^b mmol/L, the Glucose (C57BL/6J mice [3]; blood, fasting, camphene-administered group) was 7.6 ± 0.51^ab mmol/L and the “lower accumulated body weight gain as compared to HFD control group” value (C57BL/6J mice [4]) was 58%. For the same compound, the “lower final body weight as compared to HFD control group” value (C57BL/6J mice [4]) was 33%, the “lower epididymal fat weight per body weight as compared to HFD” value (C57BL/6J mice [4]; P<0.001) was 46% and the “lower mesenteric fat weight per body weight as compared to HFD” value (C57BL/6J mice [4]; P<0.001) was 61%. For the same compound, the “lower perirenal fat weight per body weight as compared to HFD” value (C57BL/6J mice [4]; P<0.001) was 76%, the “lower retroperitoneal fat weight per body weight as compared to HFD” value (C57BL/6J mice [4]; P<0.001) was 48% and the “lower total visceral fat weight per body weight as compared to HFD” value (C57BL/6J mice [4]; P<0.001) was 52%. The “aP2 mRNA expression in visceral fat tissue” value (aP2) was “significantly decreased expression”.
